Results on one compound are retold here after patent publication US20060058243A1, “Methods and compositions for treating diabetes mellitis” (priority 2002, published 2006).

Molecules are shown by their SMILES.

Data set [1] relates to ob/ob mice. The data set can be described thus: Plasma insulin levels in ob/ob mice after intraperitoneal injection. Conditions: single intraperitoneal injection. Format: in vivo. The protocol: Diabetic and obese ob/ob mice were injected intraperitoneally with either water or α-PGG. Plasma from each mouse was isolated at various times post injection and was measured for insulin levels.

For data set [2], the system named is ob/ob mice. The data set can be described thus: Glucose tolerance test in ob/ob mice. Format: in vivo. The protocol: (§1) FIG. 11. Effect of PGG on blood glucose levels in db/db and ob/ob mice. Various doses of α-PGG were orally delivered without glucose to db/db mice(A) or with glucose to ob/ob mice (B) mice. At different times post the delivery, glucose was determined in samples from tail blood.
FIG. 12. PGG protects ob/ob mice from hyperglycemia immediately after glucose challenge and hypoglycemia several days after the challenge. At various time points after the glucose challenge, blood glucose levels were measured in tail blood.
To determine if α-PGG is also effective in improving glucose tolerance in diabetic and obese mice, a glucose tolerance test was performed using ob/ob mice. Glucose or glucose plus α-PGG were orally delivered into male ob/ob mice, and blood glucose levels were measured at various times post glucose/PGG administration.
A single high does of glucose in ob/ob mice can be fatal, either because of the very high levels of blood glucose levels […] after the glucose challenge or because of the abnormally low glucose levels 2-3 days after the glucose challenge. […] Although the protection mechanisms are unknown at this time, it is very likely that α-PGG protected the ob/ob mice not only by its GTS activity, but also some other activity such as AD-related activity.

The subject of another data set is 3T3-L1 adipocytes. The experiment in a line: Glucose transport stimulatory (GTS) activity, 2-deoxy-D-[3H]glucose uptake. Conditions: 3T3-L1 adipocytes, FIG. 2. Format: cell-based. As to the method: (§2) PGG, either as a mixture or as single isomer (α or β), is added to either adipocytes (A) or preadipocytes (B). GTS activity (A) and AD activity (B) of PGG are measured by ^3H-glucose uptake. GLUT4 is not expressed in preadipocytes, so glucose uptake can be used as an indirect measurement of adipocyte differentiation.
Glucose uptake activity in cells may be analyzed by measuring the uptake of 2-deoxy-D-[^3H] glucose using a standard assay. Confluent 3T3-L1 adipocytes grown in 12-well plates are washed twice with serum-free DMEM and incubated with 1 mL of the same medium at 37° C. for 2 h. The cells are washed 3 times with Krebs-Ringer-Hepes (KRP) buffer and incubated with 0.9 mL KRP buffer at 37° C. for 30 min. […] Glucose uptake is initiated by addition of 0.1 mL KRP buffer and 37 MBq/L 2-deoxy-D-[^3H] glucose and 1 mmol/L glucose as final concentrations. After 10 min, glucose uptake is terminated by washing the cells 3 times with cold PBS. The cells are lysed with 0.7 mL of 1% Triton X-100 at 37° C. for 20 min. The radioactivity retained by the cell lysates is determined by a scintillation counter. The dosage that induces the maximal glucose uptake can be selected among the experimental samples.
3T3-L1 adipocytes were purchased from ATCC, and maintained and passed as preadipocytes in DMEM supplemented with 10% calf serum in a 37° C. incubator with 10% CO2 as required by the cells. The cells were induced to differentiate into adipocytes by addition of MDI induction cocktail as described in Liu, F., Kim, J., Li, Y., Liu, X., Li, J. & Chen, X. (2001) An extract of Lagerstroemia speciosa L. has insulin-like glucose uptake-stimulatory and adipocyte differentiation-inhibitory activities in 3T3-L1 cells. J. Nutrition 131:2242-224, which is specifically incorporated herein by reference. Varying amounts of α-PGG and β-PGG were then added to the medium and the amount of glucose taken up by control and treated cells determined using a standard glucose uptake assay, as described in Liu et al. As shown in FIG. 2A chemically synthesized and plant derived β-PGG have similar glucose transport stimulatory (GTS). The GTS activity of α-PGG is consistently 10-20% higher than that of β-PGG (FIG. 2).
Confluent 3T3-L1 adipocytes grown in 12-well plates were washed twice with serum-free DMEM and incubated with 1 mL of the same medium at 37° C. for 2 h. The cells were washed 3 times with Krebs-Ringer-Hepes (KRP) buffer and incubated with 0.9 mL KRP buffer at 37° C. for 30 min. Compounds listed in the table below were then added at 20-40 μM (final concentration?) and adipocytes were incubated at 37° C. for 15 min. Glucose uptake was initiated by addition of 0.1 mL KRP buffer and 37 MBq/L 2-deoxy-D-[3H] glucose and 1 mmol/L glucose as final concentrations. After 10 min, glucose uptake was terminated by washing the cells 3 times with cold PBS. The cells were lysed with 0.7 mL of 1% Triton X-100 at 37° C. for 20 min. The radioactivity retained by the cell lysates is determined by a scintillation counter.

Data set [3] relates to 3T3-L1 preadipocytes. The experiment in a line: Adipocyte differentiation (AD) of preadipocytes, MDI induction, Oil Red O staining and glucose uptake. Format: cell-based. The following applies: about 10 days, 30 μM PGG, FIG. 8. The protocol: as §2
Ten days after induction, the cells were stained with Oil Red 0 and photographed at magnification X200. Only those cells that contain fat vesicles (triglyceride) can be stained.
After about 10 days MDI induces differentiation, which is clearly visible as the change from fibroblast-like preadipcytes to round-shaped, fat vesicle-containing adipocytes.
3T3-L1 adipocytes were purchased from ATCC, and maintained and passed as preadipocytes in DMEM supplemented with 10% calf serum in a 37° C. incubator with 10% CO2 as required by the cells. To test the effect of PGG on adipogenesis, the preadipocytes were incubated either with a differentiation-induction cocktail comprised of 3-isobutyl-1-methylxanthine, […], a cocktail comprised of 3-isobutyl-1-methylxanthine, dexamethasone (MD) and PGG; or with MDI plus PGG.
In order to study the mechanism by which PGG inhibits 3T3-L1 preadipocyte differentiation, we used gene expression studies. This strategy allows us to determine whether PGG specifically acts on genes that participate in the differentiation process. […] After about 10 days MDI induces differentiation, which is clearly visible as the change from fibroblast-like preadipcytes to round-shaped, fat vesicle-containing adipocytes (FIG. 8 middle).

Data set [4] has as its system 3T3-L1 preadipocytes. The data set can be described thus: Clonal expansion / cell proliferation assay by LDH activity. Format: cell-based. The protocol:
Preadipocytes were induced to undergo clonal expansion by MDI, or α-PGG, or β-PGG in the presence of MDI. 24 or 48 hrs after induction, the media was removed and the cells were lysed. The […] (LDH) activity of the cell lysates was measured by LDH kit. Cell growth media were also collected and their LDH activity from dead cells was also measured (not shown on this graph). LDH activity is a constant per cell in a given cell type, the LDH activity measured is proportional to the number of cells in the samples.
A cell proliferation assay was used to determine if PGG inhibits adipocyte differentiation by blocking clonal expansion. […] The basis for the difference between the anomers in clonal expansion and differentiation is not known.

The subject of the next data set is db/db mice. The experiment in a line: Blood glucose in fasting diabetic db/db mice after oral dose. Format: in vivo. The following applies: single oral dose 25 mg/kg body weight, versus vehicle, P<0.01, FIG. 11A. The protocol:
as §1
Male db/db (leptin receptor deficient) mice of 8 weeks of age may be used to determine in vivo dosages for simulating glucose uptake The mice are divided into three to four groups depending upon how many dosages are analyzed. Ten μl of a test solution with pre-determined concentrations of the test gallotannin composition is orally administered to the test mice. The negative control mice receive the same amount of water. After the administration, blood is collected from the mouse tail at various times post oral administration. The blood glucose level of a mouse at a given time post administration is measured by applying six μl of blood on a One Touch Basic Complete Diabetes Monitoring System (from Lifescan). The effective dosage range and the optimal dosage can be determined by comparison of the reduction of blood glucose levels by different dosages relative to the glucose level of the negative (water) control group.
The reduction of the glucose level is about 15-20% depending on the time post α-pGG administration (P<0.01, FIG. 11A).

The mark [5] stands for this setting: in the presence of MDI, FIG. 10.

For `O=C(OC[C@H]1O[C@H](OC(=O)c2cc(O)c(O)c(O)c2)[C@H](OC(=O)c2cc(O)c(O)c(O)c2)[C@@H](OC(=O)c2cc(O)c(O)c(O)c2)[C@@H]1OC(=O)c1cc(O)c(O)c(O)c1)c1cc(O)c(O)c(O)c1` [α-PGG, 1,2,3,4,6-penta-O-galloyl-α-D-glucose], the “plasma insulin levels versus water” value with ob/ob mice [1] is “significantly lower plasma insulin levels”. The “protection from extremely low glucose levels after glucose challenge” value in the data set on ob/ob mice [2] (2-5 days after challenge, FIG. 12) was “protected these mice from suffering extremely low glucose levels”. Also, in the data set on ob/ob mice [2] (ob/ob mice, oral), the “time after treatment at which improved blood glucose levels could still be observed” value is no less than 24 h. For the same compound, the “blood glucose levels compared to glucose alone” value in the data set with ob/ob mice [2] (oral glucose plus α-PGG, P<0.001, FIG. 11B) is “significantly lower blood glucose levels”. Moreover, in the data set on 3T3-L1 adipocytes, the “GTS activity higher than that of β-PGG” value was 10-20%. The “differentiation of preadipocytes treated with MDI plus compound” value in the data set on 3T3-L1 preadipocytes [3] is recorded as “abolishes the differentiation”. In addition, the “cell-killing compared to MDI induced cells” value in the data set on 3T3-L1 preadipocytes [4] (data not shown) is recorded as “without significantly increased cell-killing”. In addition, in the data set with 3T3-L1 preadipocytes [4] (setting [5]), the “first round of clonal expansion” value is recorded as “not inhibited” and the “second round of clonal expansion” value is “partially inhibited”. In the data set on db/db mice, the “reduction of the blood glucose level” value is listed as 15-20%.
